Converted amounts (≈) assume the structure as drawn. Where two headings read alike, the source gives them in different places. Starred links: 1 amine or outer side, 2 acyl side, 3 side chain; linkers in the order of their positions; H or OH if unused. Positions of bridges follow the written chain, without caps; N, C: chain ends. Non-standard residues stand in square brackets, D forms with d. Residues, ends and D or L forms follow the SMILES beside them. *: point of attachment. pTerphenylCO(4''-OnC5H11) = CCCCCOc1ccc(-c2ccc(-c3ccc(C(=O)*)cc3)cc2)cc1; Orn(4R-OH,5R-OH) = O=C([C@H](C[C@@H](O)[C@@H](O)N[*:3])N[*:1])[*:2]; hTyr(3S-OH,4S-OH) = N[C@H](C(=O)O)[C@H](O)[C@@H](O)c1ccc(O)cc1; Pro(3S-OH,4S-Me) = C[C@H]1CN[C@H](C(=O)O)[C@H]1O; Hyp = O=C(O)[C@@H]1C[C@@H](O)CN1

Holding throughout (assay type): cell-based
Assay [1] has as its system Candida albicans ATCC 90028. The experiment in a line: MIC assay (CLSI M27-A3), Candida albicans ATCC 90028. The following applies: Candida albicans, ATCC90028, second batch. Here is the method: (§1) After a test compound was serially diluted, an MIC (minimum inhibitory concentration) assay was performed on the standard Candida strain and an MEC (minimum effective concentration) assay on the standard Aspergillus strain. The MIC assay was performed according to the guidelines of the Clinical and Laboratory Standards Institute (CLSI M27-A3) and the MEC assay according to the guidelines of the Clinical and Laboratory Standards Institute (CLSI M38-A2).
(§2) The frozen strain was passaged at least twice, and a single colony was picked and resuspended in normal saline or sterile water in a tube. The suspension was vortexed and adjusted to 0.5 McF (1×10^6 to 5×10^6 CFU/mL) using a spectrophotometer at wavelength 530 nm. The suspension was 50-fold diluted with normal saline and then 20-fold diluted with 1×RPMI 1640 broth (1×10^3 to 5×10^3 CFU/mL). 10 μL of the suspension was applied to an SDA plate for colony counting, with a range from about 10 to 50 single colonies.
At this time, the bacterium concentration in each well should be 0.5×10^3 to 2.5×10^3 CFU/mL. […]
(§3) Yeast-type fungi: A disposable sealing film was applied to the 96-well plate, and the mixture was well mixed by shaking. Observation was performed through a plate reader with the naked eye. Comparisons were made to the growth control, and the minimum compound concentration corresponding to ≥50% growth inhibition was defined as MIC. Pictures were taken and saved using an automatic plate reader.

For assay [2], the system named is Candida albicans (azole drug-resistant strain) R358. Description: MIC assay (CLSI M27-A3), Candida albicans azole drug-resistant strain R358. The following applies: Candida albicans; second batch; read-out: MIC, Candida albicans (azole drug-resistant strain) R358. How it is done: as §1, §2
(§4) At this time, the bacterium concentration in each well should be 0.5×10^3 to 2.5×10^3 CFU/mL.
(§5) For echinocandin drugs, Aspergillus was incubated at 28° C. for 21-26 h, and then the MEC results were read.
as §3

For assay [3], the system named is Candida tropicalis (amphotericin-resistant strain) ATCC 200956. The experiment in a line: microbe, parasite or virus in culture. The settings on record: Candida tropicalis, ATCC200956, read-out: MIC, Candida tropicalis (amphotericin-resistant strain) ATCC 200956. Here is the method:
as §1, §2, §4, §5, §3

Assay [4] has as its system Candida glabrata ATCC 36583. The experiment in a line: MIC assay (CLSI M27-A3), Candida glabrata ATCC 36583. The settings on record: Nakaseomyces glabratus, ATCC36583; second batch; read-out: MIC, Candida glabrata ATCC 36583. Here is the method: as §1, §2, §4, §5, §3
In assay [5] the test system is Candida albicans ATCC 44858. The experiment in a line: MIC assay (CLSI M27-A3), Candida albicans ATCC 44858. The following applies: Candida albicans. How it is done:
as §1, §2, §4, §5, §3

The subject of assay [6] is Candida albicans (azole drug-resistant strain) R357. The experiment in a line: MIC assay (CLSI M27-A3), Candida albicans azole drug-resistant strain R357. The settings on record: Candida albicans; second batch; read-out: MIC, Candida albicans (azole drug-resistant strain) R357. Here is the method:
as §1, §2, §4, §5, §3

Assay [7] concerns Meyerozyma guilliermondii ATCC 6260. The experiment in a line: MIC assay (CLSI M27-A3), Meyerozyma guilliermondii ATCC 6260. The following applies: Meyerozyma guilliermondii, ATCC6260, 24 h, read-out: MIC, Meyerozyma guilliermondii ATCC 6260. How it is done:
as §1, §2, §4, §5, §3

For assay [8], the system named is Aspergillus flavus ATCC 28539. The experiment in a line: MEC assay (CLSI M38-A2), Aspergillus flavus ATCC 28539. The settings on record: first batch; 28° C., 21-26 h. Here is the method:
The MIC assay was performed according to the guidelines of the Clinical and Laboratory Standards Institute (CLSI M27-A3) and the MEC assay according to the guidelines of the Clinical and Laboratory Standards Institute (CLSI M38-A2).
Colonies on the plate were covered with about 1 mL of 0.85% normal saline or sterile water (polysorbate 20 was added at a final concentration of 0.1%-0.01%). […] The homogeneous upper layer of the suspension was transferred to a new sterile tube, which was then sealed and vortexed for 15 s (be careful as the suspension may produce an aerosol when the cover is removed). The concentration of the suspension was adjusted until an OD value of 0.09-0.13 was achieved using a spectrophotometer at 530 nm. […] 100 μL of sample was added to each well of the 96-well plate within 2 h after dilution (the final spore concentration in the susceptibility testing plate was at 0.4×10^4 to 5×10^4 CFU/mL).
Aspergillus: For echinocandin drugs, comparisons were made to the growth control under a plate reader, and the minimum drug concentration that could cause the hyphae to form small, round, compact hyphal particles was defined as MEC. For accurate determination of MEC values, the plate must not be vortexed before reading.

The subject of assay [9] is Candida albicans ATCC 90029. The experiment in a line: MIC assay (CLSI M27-A3), Candida albicans ATCC 90029. The following applies: Candida albicans, ATCC90029, 24 h, read-out: MIC, Candida albicans ATCC 90029. Here is the method:
as §1, §2, §4, §5, §3

The subject of assay [10] is Candida glabrata ATCC 15126. Description: MIC assay (CLSI M27-A3), Candida glabrata ATCC 15126. The following applies: Nakaseomyces glabratus, ATCC15126, 24 h, read-out: MIC, Candida glabrata ATCC 15126. How it is done: as §1, §2, §4, §5, §3
Assay [11] concerns Candida parapsilosis ATCC 22019. The experiment in a line: MIC assay (CLSI M27-A3), Candida parapsilosis ATCC 22019. The following applies: Lodderomyces parapsilosis, ATCC22019, 24 h, read-out: MIC, Candida parapsilosis ATCC 22019. Here is the method:
as §1, §2, §4, §5, §3

In assay [12] the test system is Candida krusei ATCC 6258. The experiment in a line: MIC assay (CLSI M27-A3), Candida krusei ATCC 6258. The following applies: Pichia kudriavzevii, ATCC6258, 24 h, read-out: MIC, Candida krusei ATCC 6258. How it is done: as §1, §2, §4, §5, §3
The test system of assay [13] is Candida tropicalis ATCC 750. The experiment in a line: MIC assay (CLSI M27-A3), Candida tropicalis ATCC 750. The following applies: Candida tropicalis, ATCC750, 24 h, read-out: MIC, Candida tropicalis ATCC 750. Here is the method: as §1, §2, §4, §5, §3
Setting [14] is: 24 h, 35° C., read-out: MIC, Candida albicans ATCC 90028.
The mark [15] stands for this setting: + 50% human serum, read-out: MIC, Candida albicans + 50% human serum ATCC 90028.
The mark [16] stands for this setting: ATCC44858, second batch, read-out: MIC, Candida albicans ATCC 44858.

Take `CCCCCOc1ccc(-c2ccc(-c3ccc(C(=O)N[C@H]4C[C@@H](O)[C@@H](OC[C@H](C)[N+](C)(C)C)NC(=O)[C@@H]5[C@@H](O)[C@@H](C)CN5C(=O)[C@H]([C@@H](C)O)NC(=O)[C@H]([C@H](O)[C@@H](O)c5ccc(O)cc5)NC(=O)[C@@H]5C[C@@H](O)CN5C(=O)[C@H]([C@@H](C)O)NC4=O)cc3)cc2)cc1` [Example 22]: the MIC is 0.25 µg/mL in assay [1] (setting [14]); 0.25 µg/mL in [1] (setting [15]); 0.25 µg/mL in assay [2]; 0.25 µg/mL in [3]; 0.5 µg/mL in assay [4]; 0.25 µg/mL in assay [5] (setting [16]). Further, the MIC in assay [6] worked out at 0.5 µg/mL.

As to `CCCCCOc1ccc(-c2ccc(-c3ccc(C(=O)N[C@H]4C[C@@H](O)[C@@H](O)NC(=O)[C@@H]5[C@@H](O)[C@@H](C)CN5C(=O)[C@H]([C@@H](C)O)NC(=O)[C@H]([C@H](O)[C@@H](O)c5ccc(O)cc5)NC(=O)[C@@H]5C[C@@H](O)CN5C(=O)[C@H]([C@@H](C)O)NC4=O)cc3)cc2)cc1` [Anidulafungin, reference compound] ({pTerphenylCO(4''-OnC5H11)}-[Orn(4R-OH,5R-OH)]T[Hyp][hTyr(3S-OH,4S-OH)]T[Pro(3S-OH,4S-Me)]; lactam 1-C), the MIC came to 1 µg/mL (≈ 0.877 µM) in [7]; 0.016 µg/mL (≈ 0.014 µM) in [9]; 0.125 µg/mL (≈ 0.11 µM) in assay [10]; 0.5 µg/mL (≈ 0.438 µM) in assay [11]; 0.063 µg/mL (≈ 0.0553 µM) in [12]; 0.016 µg/mL (≈ 0.014 µM) in [13]. In addition, the “MEC, Aspergillus flavus ATCC 28539” value in [8] stood at 0.031 µg/mL.

`CCCCCOc1ccc(-c2ccc(-c3ccc(C(=O)N[C@H]4C[C@@H](O)[C@@H](O[C@@H](C)C[N+](C)(C)C)NC(=O)[C@@H]5[C@@H](O)[C@@H](C)CN5C(=O)[C@H]([C@@H](C)O)NC(=O)[C@H]([C@H](O)[C@@H](O)c5ccc(O)cc5)NC(=O)[C@@H]5C[C@@H](O)CN5C(=O)[C@H]([C@@H](C)O)NC4=O)cc3)cc2)cc1` [Example 24]: the MIC in assay [1] (setting [14]) amounted to 0.25 µg/mL; in assay [1] (setting [15]), 0.25 µg/mL; in [2], 0.0625 µg/mL; in [3], 0.125 µg/mL; in assay [4], 0.25 µg/mL; in assay [5] (ATCC44858, read-out: MIC, Candida albicans ATCC 44858), 0.125 µg/mL. In addition, the MIC in [6] came out at 0.5 µg/mL.

On to `CCCCCOc1ccc(-c2ccc(-c3ccc(C(=O)N[C@H]4C[C@@H](O)[C@@H](OC[C@@H](C)[N+](C)(C)C)NC(=O)[C@@H]5[C@@H](O)[C@@H](C)CN5C(=O)[C@H]([C@@H](C)O)NC(=O)[C@H]([C@H](O)[C@@H](O)c5ccc(O)cc5)NC(=O)[C@@H]5C[C@@H](O)CN5C(=O)[C@H]([C@@H](C)O)NC4=O)cc3)cc2)cc1` [Example 23], for which the MIC worked out at 0.25 µg/mL in assay [1] (setting [14]); 0.25 µg/mL in assay [1] (setting [15]); 0.125 µg/mL in assay [2]; 0.25 µg/mL in assay [3]; 0.25 µg/mL in assay [4]; 0.25 µg/mL in assay [5] (setting [16]). In addition, the MIC in assay [6] was found to be 0.25 µg/mL.

These data come from US12466856B2, “Echinocandin analogues and preparation method therefor” (SHANGHAI SENHUI MEDICINE CO., LTD., priority 2019, dated 2025).
